Data published in ChEMBL document CHEMBL1201862, “PubChem BioAssay data set” (2004).
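Five concentrations, 48 hours, 96-well plates. GI50 marks 50% less growth.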 The source made the active and inactive calls. Cut-off read from the data, not from the text of the source: active = GI50 up to about 1.1 µM and inactive = higher.

Key:
Experiment in all cases: NCI tumour cell line growth inhibition, 48 h
[1] = system: HL-60
[2] = system: NCI-H23
[3] = system: HCC 2998
[4] = system: HT-29
[5] = system: 786-0
[6] = system: SN12C
[7] = system: NCI-H226
[8] = system: MCF7
[9] = system: SF-295
[10] = system: SNB-19
[11] = system: NCI/ADR-RES
[12] = system: A498
[13] = system: T47D
[14] = system: RPMI-8226
[15] = system: KM12
[16] = system: RXF 393
[17] = system: MOLT-4
[18] = system: DU-145
[19] = system: OVCAR-8
[20] = system: NCI-H460
[21] = system: Hs-578T
[22] = system: M14
[23] = system: IGROV-1
[24] = system: UO-31
[25] = system: OVCAR-5
[26] = system: A549
[27] = system: CAKI-1
[28] = system: K562
[29] = system: CCRF-CEM
[30] = system: SK-OV-3
[31] = system: SK-MEL-28
[32] = system: LOX IMVI
[33] = system: SK-MEL-2
[34] = system: ACHN
[35] = system: SK-MEL-5
[36] = system: HOP-92
[37] = system: COLO 205
[38] = system: SF-268
[39] = system: UACC-257
[40] = system: HCT-116
[41] = system: PC-3
[42] = system: BT-549
[43] = system: TK-10
[44] = system: MDA-MB-231
[45] = system: MDA-MB-435
[46] = system: U-251
[47] = system: HCT-15
[48] = system: OVCAR-3
[49] = system: HOP-62
[50] = system: MDA-N
[51] = system: EKVX
[52] = system: UACC-62
[53] = system: NCI-H522
[54] = system: SW-620
[55] = system: SF-539
[56] = system: SNB-75
[57] = system: OVCAR-4
[58] = system: Malme-3M

## O=C(NC1(C(=O)O)CCCC1)c1ccccc1
[1]
  GI50: > 100 µM (inactive)
[2]
  GI50: > 100 µM (inactive)
[3]
  GI50: > 100 µM (inactive)
[4]
  GI50: > 100 µM (inactive)
[5]
  GI50: > 100 µM (inactive)
[6]
  GI50: > 100 µM (inactive)
[7]
  GI50: > 100 µM (inactive)
[8]
  GI50: > 100 µM (inactive)
[9]
  GI50: > 100 µM (inactive)
[10]
  GI50: > 100 µM (inactive)
[11]
  GI50: > 100 µM (inactive)
[12]
  GI50: > 100 µM (inactive)
[13]
  GI50: > 100 µM (inactive)
[14]
  GI50: > 100 µM (inactive)
[15]
  GI50: > 100 µM (inactive)
[16]
  GI50: > 100 µM (inactive)
[17]
  GI50: > 100 µM (inactive)
[18]
  GI50: > 100 µM (inactive)
[19]
  GI50: > 100 µM (inactive)
[20]
  GI50: > 100 µM (inactive)
[21]
  GI50: > 100 µM (inactive)
[22]
  GI50: > 100 µM (inactive)
[23]
  GI50: > 100 µM (inactive)
[24]
  GI50: > 100 µM (inactive)
[25]
  GI50: > 100 µM (inactive)
[26]
  GI50: > 100 µM (inactive)
[27]
  GI50: > 100 µM (inactive)
[28]
  GI50: > 100 µM (inactive)
[29]
  GI50: > 100 µM (inactive)
[30]
  GI50: > 100 µM (inactive)
[31]
  GI50: > 100 µM (inactive)
[32]
  GI50: > 100 µM (inactive)
[33]
  GI50: > 100 µM (inactive)
[34]
  GI50: > 100 µM (inactive)
[35]
  GI50: > 100 µM (inactive)
[36]
  GI50: > 100 µM (inactive)
[37]
  GI50: > 100 µM (inactive)
[38]
  GI50: > 100 µM (inactive)
[39]
  GI50: > 100 µM (inactive)
[40]
  GI50: > 100 µM (inactive)
[41]
  GI50: > 100 µM (inactive)
[42]
  GI50: > 100 µM (inactive)
[43]
  GI50: > 100 µM (inactive)
[44]
  GI50: > 100 µM (inactive)
[45]
  GI50: > 100 µM (inactive)
[46]
  GI50: > 100 µM (inactive)
[47]
  GI50: > 100 µM
[48]
  GI50: > 100 µM (inactive)
[49]
  GI50: > 100 µM (inactive)
[50]
  GI50: > 100 µM (inactive)
[51]
  GI50: > 100 µM (inactive)
[52]
  GI50: > 100 µM (inactive)
[53]
  GI50: > 100 µM (inactive)
[54]
  GI50: > 100 µM (inactive)
[55]
  GI50: > 100 µM (inactive)

## COc1ccc2[nH]c3c(c2c1)CC(=S)N1CCCC(CC3=O)C1 (centres undefined)
[2]
  GI50: 47.8 µM (inactive)
[3]
  GI50: 35.6 µM (inactive)
[4]
  GI50: 45.4 µM (inactive)
[5]
  GI50: 58.2 µM (inactive)
[6]
  GI50: 63 µM (inactive)
[7]
  GI50: 91.6 µM (inactive)
[8]
  GI50: 34.3 µM (inactive)
[56]
  GI50: 52.4 µM (inactive)
[9]
  GI50: 39.7 µM (inactive)
[10]
  GI50: 35.6 µM (inactive)
[11]
  GI50: 63.5 µM (inactive)
[12]
  GI50: 43.1 µM (inactive)
[13]
  GI50: 48.9 µM (inactive)
[57]
  GI50: 58.3 µM (inactive)
[14]
  GI50: 64.9 µM (inactive)
[15]
  GI50: 25.4 µM (inactive)
[16]
  GI50: 20.7 µM (inactive)
[18]
  GI50: 62.4 µM (inactive)
[19]
  GI50: 93.3 µM (inactive)
[20]
  GI50: 31.8 µM (inactive)
[21]
  GI50: 44 µM (inactive)
[22]
  GI50: 45.9 µM (inactive)
[23]
  GI50: 64.4 µM (inactive)
[24]
  GI50: 63.8 µM (inactive)
[25]
  GI50: 64.9 µM (inactive)
[26]
  GI50: 32.4 µM (inactive)
[58]
  GI50: 43.3 µM (inactive)
[27]
  GI50: 91 µM (inactive)
[29]
  GI50: 50.2 µM (inactive)
[30]
  GI50: 90.8 µM (inactive)
[31]
  GI50: 86.9 µM (inactive)
[33]
  GI50: 29.3 µM (inactive)
[34]
  GI50: 38.8 µM (inactive)
[35]
  GI50: 37.1 µM (inactive)
[36]
  GI50: > 100 µM (inactive)
[37]
  GI50: 31.3 µM (inactive)
[38]
  GI50: 45 µM (inactive)
[39]
  GI50: 44.9 µM (inactive)
[40]
  GI50: 29.4 µM (inactive)
[41]
  GI50: 37.2 µM (inactive)
[42]
  GI50: > 100 µM (inactive)
[43]
  GI50: > 100 µM (inactive)
[44]
  GI50: 50.2 µM (inactive)
[45]
  GI50: 46.3 µM (inactive)
[46]
  GI50: 33.3 µM (inactive)
[47]
  GI50: 57.7 µM
[48]
  GI50: 45.8 µM (inactive)
[49]
  GI50: 87.3 µM (inactive)
[50]
  GI50: 45.2 µM (inactive)
[51]
  GI50: 37.8 µM (inactive)
[52]
  GI50: 39 µM (inactive)
[54]
  GI50: 52.7 µM (inactive)

## CN(C)c1ccc2nc(CC(O)(C(F)(F)F)C(F)(F)F)ccc2c1
[2]
  GI50: > 10 µM (inactive)
[3]
  GI50: > 10 µM (inactive)
[4]
  GI50: > 10 µM (inactive)
[5]
  GI50: > 10 µM (inactive)
[6]
  GI50: > 10 µM (inactive)
[7]
  GI50: > 10 µM (inactive)
[8]
  GI50: > 10 µM (inactive)
[56]
  GI50: > 10 µM (inactive)
[9]
  GI50: > 10 µM (inactive)
[10]
  GI50: > 10 µM (inactive)
[11]
  GI50: > 10 µM (inactive)
[12]
  GI50: > 10 µM (inactive)
[13]
  GI50: > 10 µM (inactive)
[57]
  GI50: > 10 µM (inactive)
[14]
  GI50: > 10 µM (inactive)
[15]
  GI50: > 10 µM (inactive)
[16]
  GI50: > 10 µM (inactive)
[17]
  GI50: > 10 µM (inactive)
[18]
  GI50: > 10 µM (inactive)
[19]
  GI50: > 10 µM (inactive)
[20]
  GI50: > 10 µM (inactive)
[21]
  GI50: > 10 µM (inactive)
[22]
  GI50: > 10 µM (inactive)
[23]
  GI50: > 10 µM (inactive)
[24]
  GI50: > 10 µM (inactive)
[25]
  GI50: > 10 µM (inactive)
[26]
  GI50: > 10 µM (inactive)
[58]
  GI50: > 10 µM (inactive)
[27]
  GI50: > 10 µM (inactive)
[28]
  GI50: > 10 µM (inactive)
[29]
  GI50: > 10 µM (inactive)
[30]
  GI50: > 10 µM (inactive)
[31]
  GI50: > 10 µM (inactive)
[32]
  GI50: > 10 µM (inactive)
[33]
  GI50: > 10 µM (inactive)
[34]
  GI50: > 10 µM (inactive)
[35]
  GI50: > 10 µM (inactive)
[36]
  GI50: > 10 µM (inactive)
[37]
  GI50: > 10 µM (inactive)
[38]
  GI50: > 10 µM (inactive)
[39]
  GI50: > 10 µM (inactive)
[40]
  GI50: > 10 µM (inactive)
[41]
  GI50: > 10 µM (inactive)
[42]
  GI50: > 10 µM (inactive)
[43]
  GI50: > 10 µM (inactive)
[44]
  GI50: > 10 µM (inactive)
[45]
  GI50: > 10 µM (inactive)
[46]
  GI50: > 10 µM (inactive)
[47]
  GI50: > 10 µM
[48]
  GI50: > 10 µM (inactive)
[49]
  GI50: > 10 µM (inactive)
[50]
  GI50: > 10 µM (inactive)
[51]
  GI50: > 10 µM (inactive)
[52]
  GI50: > 10 µM (inactive)
[53]
  GI50: > 10 µM (inactive)
[54]
  GI50: > 10 µM (inactive)
[55]
  GI50: > 10 µM (inactive)
